Like-named read-outs stand apart in the source and are kept apart here.
Assays:
[1] = system: MCF-7 mammary gland adenocarcinoma cells; assay: MTT antiproliferative assay, MCF-7; format: cell-based; details: Homo sapiens, MCF7, MTT, ± SD, read-out: GI50 in vitro Values, MCF-7
Description: (§1) Human T-cell leukemia cell line Jurkat (ATCC TIB-152, E6-1 clone) was cultured in RPMI-1640 (Invitrogen) supplemented with 10% FBS (Invitrogen), 100 mg/L penicillin G, 100 mg/L streptomycin, 1.0 mM sodium pyruvate, 1.5 g/L sodium bicarbonate, and 4.5 g/L glucose (all from Sigma). Human cervical cancer cell line HeLa (ATCC S3) was cultured in DMEM (Invitrogen) supplemented with 10% FBS, 100 mg/L penicillin G, and 100 mg/L streptomycin. MCF-7 (human mammary carcinoma) cells were cultured in DMEM supplemented with 1.0 mM sodium pyruvate, 1% GlutaMax™-1 (Invitrogen), 100 μg/mL penicillin, 100 μg/mL streptomycin, and 10% FBS. Human uterine sarcoma MES-SA and MES-SA/Dx5 cells were cultured in RPMI-1640 medium supplemented with 10% FBS, 100 mg/L penicillin G and 100 mg/L streptomycin. All cells were incubated at 37° C. in a humidified atmosphere with 5% CO2. The other cell lines were maintained in a similar fashion as previously described.
(§2) To evaluate antiproliferative properties of the compounds of Formula I, mitochondrial dehydrogenase activities were measured using the MTT assay. The cell lines were prepared by trypsinizing and seeding […] cells per well into microplates. All compounds were reconstituted in dimethyl sulfoxide (DMSO) at a concentration of either 100 mM or 25 mM prior to treatment. The cells were grown for 24 hrs before treatment at concentrations ranging from 0.004 to 100 microM and incubated for 48 hrs in 200 microL media. 20 microL of MTT reagent in serum free medium (5 mg/mL) was added to each well and incubated further for 2 hrs. Media was removed and the resulting formazan crystals were re-solubilized in 100 microL of DMSO and the optical density (OD) was measured using a Thermomax Molecular Device plate reader at a wavelength of 490 nm. The experiments were performed in quadruplicate and repeated at least twice for each compound per cell line. Cells treated with 0.1% DMSO were used as a negative control, while phenyl arsine oxide (PAO) was used as a positive killing control.
(§3) Human cancer cell lines were obtained from the American Type Culture Collection (ATCC, Manassas, Va., USA), the European Collection of Cell Culture (ECACC, Salisbury, UK) and the Deutsche Sammlung von Mikroorganismen and Zellkulturen (DSMZ, Braunschweig, Germany). Human cervical adenocarcinoma HeLa cells were cultured in DMEM supplemented with 10% fetal bovine serum (FBS). Human mammary carcinoma MCF-7 cells were cultured in RPMI supplemented with 10% FBS. The U87 and U373 cells were cultured in DMEM culture medium (Lonza code 12-136F, Vervier, Belgium), while the SKMEL-28 and A549 cells were cultured in RPMI culture medium (Lonza; code 12-115F) supplemented with 10% heat-inactivated FBS (Lonza, FBS South America code DE14-801F). […] All cell lines were cultured in T25 flasks, maintained and grown at 37° C., 95% humidity, 5% CO2.
(§4) To evaluate antiproliferative properties of the synthesized compounds, the MTT assay was used. The cell lines were assessed by trypsinizing each cell line and seeding 4×10^3 cells per well into 96-well plates. All compounds were dissolved in DMSO at a concentration of either 100 mM or 50 mM prior to cell treatment. The cells were grown for 24 h and then treated with compounds at concentrations ranging from 0.04 to 100 μM and incubated for 48 h in 200 μL media. 20 μL of MTT reagent in serum free medium (5 mg/mL) was added to each well and incubated further for 2 h. Media was removed, and the resulting formazan crystals were re-solubilized in 200 μL of DMSO. A490 was measured using a Thermomax Molecular Device plate reader. The experiments were performed in quadruplicate and repeated at least twice for each compound per cell line. Cells treated with 0.1% DMSO were used as a control, and 1 μM phenyl arsine oxide (PAO) was used as a positive killing control.

[2] = system: HeLa, MCF-7, U-87 and A549 cells; assay: MTT antiproliferative activity, statements for four-cell-line panel; format: cell-based, human; details: MCF-7, U-87, A549, 48 h
Description: The antiproliferative effects of compounds 13 and 18-23 were studied in a more challenging cell line panel that, in addition to the previously utilized HeLa and MCF-7, contained in vitro models for cancers known to be associated with poor prognoses, such as the U-87 human glioblastoma and A549 human non-small-cell lung (NSCLC) carcinoma.
as §4

[3] = system: A549 non-small-cell lung cancer cells; assay: MTT antiproliferative assay, A549; format: cell-based; details: Homo sapiens
Description: as §2, §3, §4

[4] = system: U-87 glioblastoma cells; assay: MTT antiproliferative assay, U-87; format: cell-based; details: Homo sapiens, Table 6, 48 h, ± SD, read-out: GI50 in vitro Values, U-87
Description: as §3, §4

[5] = system: HeLa cervical adenocarcinoma cells; assay: MTT antiproliferative assay, HeLa; format: cell-based; details: Homo sapiens, MTT, ± SD, read-out: GI50 in vitro Values, HeLa
Description: as §1, §2, §3, §4

[6] = system: SKMEL melanoma cells; assay: Quantitative videomicroscopy, SKMEL; format: cell-based, human; details: at MTT-based GI50 value
Excerpt: (§5) Poor prognoses of glioblastoma, melanoma and NSCLC patients are generally attributed to the drug resistant nature of these malignanciesand therefore it was encouraging that 7-deazahypoxanthines 13 and 18-23 were active against the U87 human glioblastoma and A549 NSCLC carcinoma cell lines. Since tubulin-targeting agents are generally poorly effective against cancer cells resistant to the induction of apoptosis, compound 22 was further evaluated against U373 human glioblastoma and SKMEL human melanoma cells, reported to display apoptosis resistance. […] Computer-assisted phase-contrast microscopy (quantitative videomicroscopy) was utilized to confirm cell death as the principal mechanism of action associated with this compound's in vitro growth inhibitory effects in these cell lines.
(§6) The effects of 22 on the viability of human U373 glioblastoma and SKMEL melanoma cells were characterized in vitro using computer-assisted phase contrast video microscopy, as described elsewhere.

[7] = system: U373 glioblastoma cells; assay: Quantitative videomicroscopy, U373; format: cell-based, human; details: U373, at MTT-based GI50 value
Excerpt: as §5, §6

[8] = system: U373 glioblastoma cells; assay: MTT antiproliferative assay, U373; format: cell-based, human; details: U373 MG
Description: as §2, §3
as §4, with “Cells treated with 0.1% DMSO were used as a control, and 1 μM phenyl arsine oxide (PAO) was used as a positive killing control.” left out

[9] = system: SKMEL-28 melanoma cells; assay: MTT antiproliferative assay, SKMEL-28; format: cell-based, human; details: SK-MEL-28
Description: as §2, §3
as §4, with “Cells treated with 0.1% DMSO were used as a control, and 1 μM phenyl arsine oxide (PAO) was used as a positive killing control.” left out

[10] = system: UM-SCC22B head and neck metastases cells; assay: MTT antiproliferative assay, UM-SCC22B; format: cell-based; details: Homo sapiens, UMSCC22B, Table 1A, 48 h, read-out: Concentration required to reduce the viability of cells by 50%, UM-SCC22B
Description: as §2

[11] = system: Hs683 anaplastic oligodendroglioma cells; assay: MTT antiproliferative assay, Hs683; format: cell-based; details: Homo sapiens, Hs 683, Table 2, 48 h, read-out: GI50 in vitro values, Hs683
Description: as §2

[12] = system: UM-SCC22A head and neck cancer cells; assay: MTT antiproliferative assay, UM-SCC22A; format: cell-based; details: Table 1A, 48 h, read-out: Concentration required to reduce the viability of cells by 50%, UM-SCC22A
Description: as §2

[13] = system: UM-SCC10B head and neck metastases cells; assay: MTT antiproliferative assay, UM-SCC10B; format: cell-based; details: Table 1A, 48 h, read-out: Concentration required to reduce the viability of cells by 50%, UM-SCC10B
Description: as §2

[14] = system: UM-SCC10A head and neck cancer cells; assay: MTT antiproliferative assay, UM-SCC10A; format: cell-based; details: UMSCC-10A, Table 1A, 48 h, read-out: Concentration required to reduce the viability of cells by 50%, UM-SCC10A
Description: as §2

[15] = system: B16F10 melanoma cells; assay: MTT antiproliferative assay, B16F10; format: cell-based; details: Mus musculus, B16-F10, Table 2, 48 h, read-out: GI50 in vitro values, B16F10
Description: as §2

[16] = system: SW480 colon cancer cells; assay: MTT antiproliferative assay, SW480; format: cell-based; details: Homo sapiens, Table 1A, 48 h, read-out: Concentration required to reduce the viability of cells by 50%, SW480
Description: as §2

[17] = system: MES-SA/Dx5 uterine sarcoma cells (overexpress p-gp); assay: MTT antiproliferative assay, MDR MES-SA/Dx5; format: cell-based, human
Description: as §1, §2
The cells of such tumors are referred to as multidrug resistant (MDR). Thus, we assessed the compounds of Formula I for antiproliferative activity in an MDR cancer cell line. This was done using the uterine sarcoma cells, MES-SA/Dx5, which overexpress p-gp. The parental drug-responsive MES-SA cell line was used as control.

[18] = system: SW620 colon cancer cells; assay: MTT antiproliferative assay, SW620; format: cell-based; details: Homo sapiens, SW-620, Table 1A, 48 h, read-out: Concentration required to reduce the viability of cells by 50%, SW620
Description: as §2

[19] = system: HCT8 colon cancer cells; assay: MTT antiproliferative assay, HCT8; format: cell-based; details: Homo sapiens, HCT-8, Table 1A, 48 h, read-out: Concentration required to reduce the viability of cells by 50%, HCT8
Description: as §2

[20] = system: MES-SA uterine sarcoma cells; assay: MTT antiproliferative assay, MES-SA; format: cell-based; details: Homo sapiens, Table 3, parental drug-responsive cell line, read-out: GI50 in vitro Values, MES-SA
Description: as §1, with “The other cell lines were maintained in a similar fashion as previously described.” left out
To evaluate antiproliferative properties of the compounds of Formula I, mitochondrial dehydrogenase activities were measured using the MTT assay. […] Media was removed and the resulting formazan crystals were re-solubilized in 100 microL of DMSO and the optical density (OD) was measured using a Thermomax Molecular Device plate reader at a wavelength of 490 nm. […]
The cells of such tumors are referred to as multidrug resistant (MDR). Thus, we assessed the compounds of Formula I for antiproliferative activity in an MDR cancer cell line. […]

[21] = system: GEO colon cancer cells; assay: MTT antiproliferative assay, GEO; format: cell-based; details: Table 1A, 48 h, read-out: Concentration required to reduce the viability of cells by 50%, GEO
Description: as §2

[22] = Table 6, 48 h, ± SD, read-out: GI50 in vitro Values, A549
[23] = Homo sapiens, Table 2, 48 h, MTT, read-out: GI50 in vitro values, U373
[24] = Table 2, 48 h, read-out: GI50 in vitro values, A549
[25] = Homo sapiens, Table 2, 48 h, MTT, read-out: GI50 in vitro values, SKMEL-28

SMILES | GI50 ([1]; Table 6, 48 h) [nM] | GI50 [3, 22] [nM] | GI50 [4] [µM] | GI50 ([5]; Table 6, 48 h) [nM] | GI50 ([1]; Table 1, 48 h treatment) [nM] | GI50 [8, 23] [nM] | GI50 [11] [nM] | GI50 [3, 24] [nM] | GI50 [9, 25] [nM] | GI50 ([5]; Table 1, 48 h treatment) [nM] | GI50 [15] [nM] | other results
Cc1nc(=O)c2c(-c3cccnc3)c(C(=O)c3ccccc3)[nH]c2[nH]1 [Compound 21, 6-Benzoyl-2-methyl-5-(pyridin-3-yl)-1H-pyrrolo[2,3-d]pyrimidin-4(7H)-one] | 4700 ± 800 | 12000 ± 1400 | 9.23 ± 2.13 | 3100 ± 100 |  |  |  |  |  |  |  | antiproliferative potencies (in words) [2]: single-digit micromolar potencies
Cc1nc(=O)c2c(-c3cncc(Br)c3)c(C(=O)c3ccccc3)[nH]c2[nH]1 [Compound 22, 6-Benzoyl-5-(5-bromopyridin-3-yl)-2-methyl-1H-pyrrolo[2,3-d]pyrimidin-4(7H)-one] | 610 ± 10 | 1100 ± 400 | 2.4 ± 0.6 | 490 ± 50 |  |  |  |  |  |  |  | mechanism of growth inhibition by videomicroscopy (in words) [6]: inhibited cancer cell proliferation by inducing cell death; mechanism of growth inhibition by videomicroscopy (in words) [7]: inhibited cancer cell proliferation by inducing cell death; GI50 ([8]; apoptosis-resistant U373 human glioblastoma, read-out: MTT-based GI50 value, U373): 300 nM; GI50 ([9]; apoptosis-resistant SKMEL human melanoma, read-out: MTT-based GI50 value, SKMEL): 300 nM
O=C(c1ccccc1)c1[nH]c2[nH]cnc(=O)c2c1-c1cncc(Br)c1 [Rig9, 6-Benzoyl-5-(5-bromopyridin-3-yl)-1H-pyrrolo[2,3-d]pyrimidin-4(7H)-one] |  |  |  |  | 87 ± 20 | 30 | 20 | 20 | 20 | 80 ± 25 | 40 | IC50 [10]: 20 nM; IC50 [12]: 120 nM; IC50 [13]: 130 nM; IC50 [14]: 90 nM
O=C(c1ccccc1)c1[nH]c2[nH]cnc(=O)c2c1-c1ccccc1 [Rig35, 6-Benzoyl-5-phenyl-1H-pyrrolo[2,3-d]pyrimidin-4(7H)-one] |  |  |  |  | 40 ± 24 | < 10 | 10 | 20 | < 10 | 35 ± 7 | 10 | IC50 [16]: < 1 nM; GI50 ([17]; Homo sapiens, MES-SA/Dx5, Table 3, MDR cell line, read-out: GI50 in vitro Values, MES-SA/Dx5): 70 ± 4 nM; variation in the sensitivities of the parental and MDR cell lines ([17]; MES-SA/Dx5 vs MES-SA, in words): only a small variation; IC50 [18]: < 1 nM; IC50 [19]: < 1 nM; GI50 [20]: 30 ± 4 nM; IC50 [21]: 8 nM

— patent US9334280B2, “Synthetic rigidin analogues as anticancer agents, salts, solvates and prodrugs thereof, and method of producing same” (New Mexico Technical Research Foundation, priority 2012, dated 2016)
